# Assay results from patent US8536332B2, “Modulating signal transduction pathways with substituted pyridol [2,3-b] pyrazines” (Aeterna Zentaris GmbH, priority 2007, dated 2013).
# pEC50, pIC50: −log10 of the molar value.
# Columns and labels:
# [1] = target: T1, PI3Kalpha (Homo sapiens, UniProt P42336); experiment: Cell-free kinase assay PI3K-ALPHA; type: biochemical
# T1 construct: purchased Upstate #14-602
# Description: (§1) The inhibitory effect of the compounds of the invention was tested on various human serine/threonine kinases, tyrosine kinases and lipid kinases in enzymatic assays. Recombinant human kinases, for example PI3Kalpha, -beta, -gamma, -delta, Erk2, p38alpha, p38gamma, Jnk1, Jnk2 and others were used, in some cases as full-length kinases, in some cases as truncated fragments—but at least consisting of the functional kinase domains. The commercial kinase proteins (Proqinase, Upstate) were used as recombinant fusion proteins with GST (glutathione S-transferase) tag or His tag. Depending on the substrate type, the different kinase reactions were quantified by suitable ALPHA™ beads (PerkinElmer).
# (§2) The kinase assays for PI3K and Erk are described in detail and selected test results are cited below. […] Subsequently, the kinase reaction was stopped by adding the ALPHA bead mix (10 μg/ml, #6760603/PerkinElmer), preincubated with 1 nM GST:Grp1 fusion protein (Upstate) and […] (#C-39B6/Echelon) in 50 mM Hepes, 50 mM NaCl, 50 mM EDTA and 0.1% BSA, and left to stand overnight. • b) Erk2-ALPHA: The test substance, 0.625 ng of Erk2 (#14-173, Upstate), 10 μM ATP and 15 nM biotinylated MBP (myelin basic protein) substrate were incubated on a 384-well Optiplate (Perkin Elmer) in a volume of 15 μl for 1 h in 25 mM Tris, 10 mM MgCl2, 0.1% Tween-20, 100 μM NaVO4, 2 mM DTT at pH 7.5. The kinase reaction was stopped by adding 10 μl of the ALPHA bead mix (10 μg/ml, #6760617/PerkinElmer), pre-incubated with anti-phospho MBP antibody (320 pM, #05-429/Upstate), in 25 mM Tris, 200 mM NaCl, 100 mM EDTA and 0.3% BSA, and left to stand overnight.
# (§3) The luminiscence was detected the next morning in a Fusion™ alpha instrument (Perkin Elmer).
# (§4) The calculation of % inhibition values per substance concentration was done by means of the following formula from the raw data determined in the Fusion™ alpha:
# (§5) The controls were determined 8 fold and the substance samples 2 fold. 0% control contained neither any ATP nor any substrate. The 100% control contained no test substance. The IC50 values were determined with GraphPadPrism.
# [2] = target: T2, Erk2 (Mus musculus, UniProt P63085); experiment: Cell-free kinase assay Erk2-ALPHA; type: biochemical, human; conditions: 10 μM ATP
# T2 construct: purchased Upstate #14-173
# Description: as §1, §2, §3, §4, §5
# [3] = target: p38alpha (Homo sapiens, UniProt Q16539); experiment: Cell-free kinase assay (ALPHA technology) p38alpha; type: biochemical; conditions: 10 μM ATP
# Description: as §1, §2, §3, §4, §5
# [4] = system: T3, Jnk1 + Jnk2; experiment: Cell-free kinase assay (ALPHA technology) Jnk1 + Jnk2; type: biochemical, human; conditions: 10 μM ATP
# T3 construct: fused on or other part: GST tag or His tag (commercial recombinant fusion proteins from Proqinase or Upstate)
# Description: as §1, §2, §3, §4, §5
# [5] = system: MDA-MB468; experiment: XTT assay, anti-proliferative activity, MDA-MB468; type: cell-based; conditions: Homo sapiens, MDA-MB-468; 45 h incubation
# Description: (§6) The principle of this test is based on the intracellular reduction of the tetrazolium dye XTT (sodium 3′-[1-(phenylaminocarbonyl)-3,4-tetrazolium]bis(4-methoxy-6-nitro)benzenesulphonic acid, Sigma) to a formazan dye by mitochondrial dehydrogenases. The dye is formed only by metabolically active cells. Its photometrically measurable intensity is a quantitative indicator for the presence of living cells. The reduction in the dye formation as a result of incubation of the cells with substances serves as a parameter for the anti-proliferative activity.
# (§7) The tumour cell lines (ATCC) were seeded in 96-well microtitre plates in a defined cell count (5000 cells/well for Hct116; 10000 cells/well for MDA MB468), and incubated overnight at 37° C., 5% CO2 and 95% air humidity. The test substances were made up as stock solutions (10 mM) in DMSO. […] The cell plates were then incubated for 45 h at 37° C., 5% CO2 and 95% air humidity.
# (§8) For the detection reaction, the XTT substrate was mixed with PMS (N-methyldibenzopyrazine methylsulphate, Sigma) and added to the cells, to result in a final concentration of 325 μg of XTT/ml and 2.5 μg PMS/ml. The mixture was then incubated for 3 h at 37° C., 95% air humidity. Subsequently the formazan salt formed by cellular dehydrogenases was quantified at an absorption of 490 nm.
# (§9) The evaluation of the % inhibition values was done by means of the following formula from the values for the optical densities measured in each case at 490 nm:
# (§10) The controls were determined 8 fold, the substance samples 2 fold. 0% control contained no cells and the 100% control contained no test substance. The EC50 values were determined with GraphPadPrism.
# [6] = system: Hct116; experiment: XTT assay, anti-proliferative activity, Hct116; type: cell-based; conditions: Homo sapiens, HCT-116; 45 h incubation
# Description: as §6, §7, §8, §9, §10
# [7] = system: Phospho-Akt (Ser 473); experiment: Cellular substrate phosphorylation (Western blotting), PI3K →pAkt; type: cell-based, human; conditions: for inhibition at 50 µM: Homo sapiens, 5 h; for inhibition of cellular phospho-Akt / PI3K-Akt pathway, in words: Western blotting, concentrations of 5-50 μM
# Description: (§11) This method enables a statement of whether the kinase modulator investigated achieves the desired effect in a cellular context too, i.e., in this case, a substrate protein downstream of the target kinase is examined for its phosphorylation status. To this end, the cells incubated with substance are lysed and the overall protein is separated on a reducing polyacrylamide gel. Subsequently, the proteins are transferred to a PVDF membrane by Western blotting and the substrate bands sought are made visible with specific antibodies and a suitable detection method. The substrate proteins down-stream of the target kinases are detected simultaneously with an anti-phospho antibody which is specific in each case and a total antibody which recognizes the substrate total protein. The duplex technology of the ODYSSEY imager (LiCOR) enables this simultaneous measurement. The intensity of the total substrate bands is employed to normalize and quantify the phosphorylation inhibition or activation.
# (§12) Suitable tumor cell lines (e.g. BxPC3, Hct116 or MDA MB468) were seeded into 6-well microtitre plates in a defined cell count (e.g. 350 000 cells/well for BxPC3 and Hct116) in the particular standard complete media and then incubated overnight at 37° C., 5% CO2 and 95% air humidity. Afterwards, the cells were incubated for 24 h under serum-reduced conditions, i.e. in the particular medium except at only 0.25% serum. The test substances were made up as stock solutions (10 mM) in DMSO and incubated with the cells at final concentrations of 5, 15.8 and 50 μM for 5 h. This was followed by cell lysis in 25 mM Tris, 150 mM NaCl, 10 mM sodium pyrophosphate, 2 mM EGTA, 25 mM beta-glycerophosphate, 25 mM NaF, 10% glycerol, 0.75% NP-40, 100 μM NaVO4 buffer. After protein quantification using the BCA (bicinchonic acid protein assay kit, Sigma) assay, amounts of protein of about 20 μg per track were separated on a Lämmli polyacrylamide gel and then transferred onto a PVDF membrane (Millipore) by semi-dry Western blotting at 0.8 mA/cm^2 for 1 h. This was followed by prehybridization of the membrane for 1 hour in I-block reagent (Applied Biosystems) and overnight simultaneous incubation with the specific antibodies. […] After the membrane had been washed, the secondary antibodies were incubated with anti-rabbit IR Dye 800 (#611-732-127, Rockland) for the phospho antibodies and anti-goat Alexa Fluor 680 (#A-21081, […]) for the total protein antibodies. After incubation for 30 min at room temperature in the dark, the hybridization of the detection antibody was detected on the membrane by scanning in an ODYSSEY imager (LiCOR).
# [8] = system: Phospho-p90RSK (S380); experiment: Cellular substrate phosphorylation (Western blotting), Erk →pRsk; type: cell-based, human; conditions: for inhibition at 50 µM: Homo sapiens, 5 h; for inhibition of phospho-Rsk / Raf-Mek-Erk pathway, in words: Western blotting, concentrations of 5-50 μM
# Description: as §11, §12
# [9] = Cell-free kinase assay Erk2-ALPHA; type: biochemical, human; conditions: cell-free kinase assay; MAPK = Erk2, p38alpha, Jnk1+Jnk2 of Table 1
# Description: as §1, §2, §3, §4, §5
# T2 sequence (P63085 whole entry): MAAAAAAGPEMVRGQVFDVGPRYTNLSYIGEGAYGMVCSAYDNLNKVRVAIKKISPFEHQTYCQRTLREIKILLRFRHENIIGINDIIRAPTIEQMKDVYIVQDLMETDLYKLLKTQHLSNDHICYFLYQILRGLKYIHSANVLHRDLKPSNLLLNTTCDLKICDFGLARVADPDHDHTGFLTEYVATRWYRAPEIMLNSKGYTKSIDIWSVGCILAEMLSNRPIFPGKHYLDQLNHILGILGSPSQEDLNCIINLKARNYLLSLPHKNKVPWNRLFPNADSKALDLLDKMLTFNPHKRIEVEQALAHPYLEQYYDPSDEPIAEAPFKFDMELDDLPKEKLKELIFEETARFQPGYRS
# Chain of p38alpha (Q16539 whole entry): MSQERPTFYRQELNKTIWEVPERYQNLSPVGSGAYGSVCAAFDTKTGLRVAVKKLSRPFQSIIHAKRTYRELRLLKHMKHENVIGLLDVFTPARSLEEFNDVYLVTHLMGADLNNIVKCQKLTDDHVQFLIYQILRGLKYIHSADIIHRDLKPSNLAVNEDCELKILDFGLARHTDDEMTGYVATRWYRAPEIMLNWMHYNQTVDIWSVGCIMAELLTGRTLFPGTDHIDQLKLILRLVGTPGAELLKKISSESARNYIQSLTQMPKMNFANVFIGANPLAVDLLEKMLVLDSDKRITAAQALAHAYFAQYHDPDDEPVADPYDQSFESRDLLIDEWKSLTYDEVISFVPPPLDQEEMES
# T1 sequence (P42336 whole entry): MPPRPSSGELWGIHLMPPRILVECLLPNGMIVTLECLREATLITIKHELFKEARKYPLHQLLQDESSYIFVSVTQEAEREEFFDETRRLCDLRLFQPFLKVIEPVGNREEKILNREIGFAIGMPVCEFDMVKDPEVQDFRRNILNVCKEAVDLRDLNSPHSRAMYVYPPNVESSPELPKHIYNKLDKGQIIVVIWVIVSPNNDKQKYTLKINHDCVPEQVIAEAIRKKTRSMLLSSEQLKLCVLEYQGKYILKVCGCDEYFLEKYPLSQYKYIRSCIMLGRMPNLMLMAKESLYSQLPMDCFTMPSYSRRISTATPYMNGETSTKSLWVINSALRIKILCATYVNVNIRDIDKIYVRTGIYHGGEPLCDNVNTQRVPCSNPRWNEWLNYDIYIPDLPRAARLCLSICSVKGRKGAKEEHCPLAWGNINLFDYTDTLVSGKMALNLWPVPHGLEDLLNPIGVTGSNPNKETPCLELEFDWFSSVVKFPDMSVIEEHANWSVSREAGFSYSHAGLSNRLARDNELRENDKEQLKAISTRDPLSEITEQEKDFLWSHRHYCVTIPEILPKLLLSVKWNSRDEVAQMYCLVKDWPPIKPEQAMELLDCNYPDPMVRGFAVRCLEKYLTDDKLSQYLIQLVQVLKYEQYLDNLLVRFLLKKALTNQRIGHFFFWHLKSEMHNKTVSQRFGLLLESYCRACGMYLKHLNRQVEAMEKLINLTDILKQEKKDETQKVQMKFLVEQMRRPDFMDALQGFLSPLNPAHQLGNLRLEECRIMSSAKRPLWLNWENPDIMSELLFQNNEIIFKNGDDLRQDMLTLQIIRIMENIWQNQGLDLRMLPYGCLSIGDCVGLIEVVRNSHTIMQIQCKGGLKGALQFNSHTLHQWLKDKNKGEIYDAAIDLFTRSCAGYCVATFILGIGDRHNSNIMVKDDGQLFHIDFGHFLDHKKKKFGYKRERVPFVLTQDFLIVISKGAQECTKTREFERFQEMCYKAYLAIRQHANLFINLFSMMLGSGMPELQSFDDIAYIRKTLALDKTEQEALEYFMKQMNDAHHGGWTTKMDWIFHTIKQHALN
# T1 sequence (P27986 whole entry partner): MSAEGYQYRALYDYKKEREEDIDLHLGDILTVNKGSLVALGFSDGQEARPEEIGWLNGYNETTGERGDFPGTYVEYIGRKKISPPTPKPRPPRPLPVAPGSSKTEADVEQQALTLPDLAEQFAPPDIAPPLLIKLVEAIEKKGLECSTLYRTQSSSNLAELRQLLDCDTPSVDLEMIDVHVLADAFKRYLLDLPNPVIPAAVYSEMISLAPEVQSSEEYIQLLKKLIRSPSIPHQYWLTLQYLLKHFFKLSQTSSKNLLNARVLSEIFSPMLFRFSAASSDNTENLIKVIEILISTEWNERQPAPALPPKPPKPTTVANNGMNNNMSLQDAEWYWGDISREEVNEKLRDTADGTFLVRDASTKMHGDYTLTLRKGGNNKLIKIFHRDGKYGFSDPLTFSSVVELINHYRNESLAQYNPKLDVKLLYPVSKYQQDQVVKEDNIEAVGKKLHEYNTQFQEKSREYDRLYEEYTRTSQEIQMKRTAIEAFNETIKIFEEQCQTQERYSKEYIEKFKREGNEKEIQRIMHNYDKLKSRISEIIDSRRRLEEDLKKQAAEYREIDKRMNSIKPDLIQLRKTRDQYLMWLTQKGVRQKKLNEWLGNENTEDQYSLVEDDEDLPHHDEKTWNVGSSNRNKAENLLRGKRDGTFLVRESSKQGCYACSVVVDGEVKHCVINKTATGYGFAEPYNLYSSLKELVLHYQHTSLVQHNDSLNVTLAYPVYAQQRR
"PI3K inhibition, in words [1]",pIC50 [2],pIC50 [3],pIC50 [4],pEC50 [5],pEC50 [6],"Erk2 / MAPK inhibition, in words [9]",melting point,SMILES,inhibition at 50 µM [7],"inhibition of cellular phospho-Akt / PI3K-Akt pathway, in words [7]",inhibition at 50 µM [8],"inhibition of phospho-Rsk / Raf-Mek-Erk pathway, in words [8]"
low IC50 values against PI3K,< 4.00,< 4.00,< 5.00,> 6.00,> 5.70,,,"CCNC(=O)Nc1cnc2ccc(-c3ccc(O)c(OC)c3)nc2n1 [Compound 5, 1-Ethyl-3-[6-(4-hydroxy-3-methoxy-phenyl)-pyrido[2,3-b]pyrazin-3-yl]-urea]",100%,total inhibition of cellular phospho-Akt at compound concentrations <50 μM,0%,phospho-Rsk is not inhibited
PI3K inhibition,< 4.00,< 4.00,< 4.00,> 5.00,> 5.30,no or only moderate MAPK inhibition,195 to 200 °C,"CCNC(=O)Nc1ccc2ncc(Nc3ccc(O)c(C(=O)OC)c3)nc2n1 [Compound 50, 5-[6-(3-Ethyl-ureido)-pyrido[2,3-b]-pyrazin-3-ylamino]-2-hydroxy-benzoic acid methyl ester]",100%,cellular PI3K selectivity,0%,do not block the Raf-Mek-Erk pathway
PI3K inhibition,> 5.00,> 5.00,< 5.00,> 5.30,> 5.00,no or only moderate MAPK inhibition,270 to 273 °C,"CCNC(=O)Nc1ccc2ncc(Nc3cccc(O)c3)nc2n1 [Compound 56, 1-Ethyl-3-[3-(3-hydroxy-phenylamino)-pyrido[2,3-b]pyrazin-6-yl]-urea]",100%,cellular PI3K selectivity,0%,do not block the Raf-Mek-Erk pathway
PI3K inhibition,< 4.00,< 5.00,< 4.00,> 5.30,> 5.30,no or only moderate MAPK inhibition,,"CCNC(=O)Nc1ccc2ncc(Nc3cccc(OC(F)F)c3)nc2n1 [Compound 73, 1-[3-(3-Difluoromethoxy-phenylamino)-pyrido[2,3-b]pyrazin-6-yl]-3-ethyl-urea]",,,,
,< 4.00,> 4.30,< 4.00,> 5.00,> 5.00,,> 240 °C,"CCNC(=O)Nc1cnc2ccc(-c3cc(C)c(O)c(C)c3)nc2n1 [Compound 181, 1-Ethyl-3-[6-(4-hydroxy-3,5-dimethyl-phenyl)-pyrido[2,3-b]pyrazin-3-yl]-urea]",,,,
inhibition of PI3K,> 6.30,< 4.00,> 4.50,> 5.30,> 5.30,inhibition of PI3K and Erk2,227 to 229 °C,"CCNC(=O)Nc1ccc2ncc(-c3ccc(OC(C)=O)c(OC)c3)nc2n1 [Compound 54, Acetic acid 4-[6-(3-ethyl-ureido)-pyrido[2,3-b]pyrazin-3-yl]-2-methoxy-phenyl ester]",100%,inhibit both,90%,inhibit both
inhibition of PI3K,> 6.30,< 4.00,> 6.00,> 5.00,> 5.00,inhibition of PI3K and Erk2,> 270 °C,"CCNC(=O)Nc1ccc2ncc(-c3ccc(OC)c(O)c3)nc2n1 [Compound 46, 1-Ethyl-3-[3-(3-hydroxy-4-methoxy-phenyl)-pyrido[2,3-b]pyrazin-6-yl]-urea]",40%,inhibit both,100%,inhibit both
,< 4.50,> 4.30,> 4.30,> 6.00,> 6.00,,234 to 237 °C,"COc1cc(-c2ccc3ncc(NC(=O)Nc4ccncc4)nc3n2)ccc1O [Compound 176, 1-[6-(4-Hydroxy-3-methoxy-phenyl)-pyrido[2,3-b]pyrazin-3-yl]-3-pyridin-4-yl-urea]",,,,

SMILES,"PI3K inhibition, in words [1]",pIC50 [2],pIC50 [3],pIC50 [4],pEC50 [5],pEC50 [6],"Erk2 / MAPK inhibition, in words [9]",melting point,inhibition at 50 µM [7],"inhibition of cellular phospho-Akt / PI3K-Akt pathway, in words [7]",inhibition at 50 µM [8],"inhibition of phospho-Rsk / Raf-Mek-Erk pathway, in words [8]"
"COc1cc(-c2ccc3ncc(NC(=O)NCCCl)nc3n2)ccc1O [Compound 173, 1-(2-Chloro-ethyl)-3-[6-(4-hydroxy-3-methoxy-phenyl)-pyrido[2,3-b]pyrazin-3-yl]-urea]",,> 4.30,> 4.30,> 4.50,> 6.00,> 6.00,,215 to 218 °C,,,,
